# Measured values as given in PubChem BioAssay (NCI).
#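 Method: 48-hour compound exposure of cells in 96-well plates, five concentrations, linear interpolation of endpoints. At the GI50, growth is halved. The concentration for full growth arrest is given as TGI.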
# How the values were obtained:
# Experiment in all cases: DTP human tumour cell line panel, 48 h
# MALME-3M melanoma = tested on: MALME-3M melanoma
# HT29 colon = tested on: HT29 colon
# SF-295 CNS = tested on: SF-295 CNS
# SW-620 colon = tested on: SW-620 colon
# SNB-19 CNS = tested on: SNB-19 CNS
# MOLT-4 leukemia = tested on: MOLT-4 leukemia
# SK-OV-3 ovarian = tested on: SK-OV-3 ovarian
# NCI-H23 lung = tested on: NCI-H23 lung
# COLO 205 colon = tested on: COLO 205 colon
# BT-549 breast = tested on: BT-549 breast
Structure (SMILES),TGI (MALME-3M melanoma),TGI (HT29 colon),TGI (SF-295 CNS),TGI (SW-620 colon),TGI (SNB-19 CNS),TGI (MOLT-4 leukemia),TGI (SK-OV-3 ovarian),TGI (NCI-H23 lung),TGI (COLO 205 colon),GI50 (HT29 colon),GI50 (NCI-H23 lung),GI50 (COLO 205 colon),GI50 (SF-295 CNS),GI50 (SW-620 colon),GI50 (SNB-19 CNS),GI50 (MOLT-4 leukemia),GI50 (SK-OV-3 ovarian),GI50 (MALME-3M melanoma),GI50 (BT-549 breast),TGI (BT-549 breast)
CCN(CC)CCNc1ccc2nc(C)n3c4ccc(O)cc4c(=O)c1c23,16.4 µM,1.57 µM,9.81 µM,1.98 µM,3.26 µM,0.293 µM,12.6 µM,,,,,,,,,,,,,
CCOC(=O)C(C(O)c1ccc([N+](=O)[O-])cc1)P(=O)(OCC)OCC (stereo not drawn),> 100 µM,> 100 µM,> 100 µM,> 100 µM,> 100 µM,> 100 µM,,> 100 µM,,,,,,,,,,,,
COC[C@H](C)N=CN1CCc2ccccc2C1(Cc1ccccc1)Cc1ccccc1,24.7 µM,20.1 µM,28.3 µM,63.1 µM,32.5 µM,37.9 µM,30.6 µM,39.8 µM,34.6 µM,,,,,,,,,,,
[CH3][Sn]([CH3])([CH3])[O][N+](=O)[O-],,> 10 µM,> 10 µM,4.8 µM,> 10 µM,> 10 µM,> 10 µM,> 10 µM,> 10 µM,5.8 µM,5.02 µM,> 10 µM,9.92 µM,2.06 µM,> 10 µM,3.2 µM,> 10 µM,,,
CN1CCN(Cc2cc(NC(=O)c3cccc(C#Cc4cccc5[nH]nc(N)c45)c3)cc(C(F)(F)F)c2)CC1,2.69 µM,2.93 µM,,2.89 µM,,,3.54 µM,3.4 µM,2.98 µM,1.53 µM,1.72 µM,1.53 µM,,1.5 µM,,,1.94 µM,1.23 µM,1.97 µM,3.62 µM
CCN=C(C#N)NCC,> 100 µM,> 100 µM,> 100 µM,37.5 µM,> 100 µM,> 100 µM,> 100 µM,> 100 µM,> 100 µM,,,,,,,,,,,
Cc1ccc(NC(=O)OCC(COc2ccc(Cl)cc2Cl)OC(=O)Nc2ccc(C)cc2)cc1 (stereo not drawn),> 100 µM,> 100 µM,> 100 µM,> 100 µM,> 100 µM,,> 100 µM,> 100 µM,> 100 µM,,,,,,,,,,,
CCOC(=O)C(=O)Nc1ccccc1C(C)C,> 100 µM,> 100 µM,> 100 µM,> 100 µM,> 100 µM,> 100 µM,> 100 µM,> 100 µM,> 100 µM,,,,,,,,,,,
CCOC1CC2OC(=O)C1C=C2C(=O)OC (stereo not drawn),38.5 µM,> 100 µM,> 100 µM,61.1 µM,> 100 µM,48.8 µM,> 100 µM,44.2 µM,37.2 µM,,,,,,,,,,,
CCOCc1cc(=O)c2c(OC)cc3c(c2o1)CCC(C)(C)O3,> 100 µM,> 100 µM,> 100 µM,> 100 µM,,> 100 µM,> 100 µM,> 100 µM,,,,,,,,,,,,
Cn1cnc([N+](=O)[O-])c1Sc1nccc(=O)[nH]1,> 100 µM,> 100 µM,> 100 µM,> 100 µM,> 100 µM,> 100 µM,> 100 µM,> 100 µM,> 100 µM,,,,,,,,,,,
Cc1ccccc1C1CC(c2ccccc2)=NO1 (stereo not drawn),> 100 µM,> 100 µM,> 100 µM,> 100 µM,> 100 µM,> 100 µM,> 100 µM,> 100 µM,> 100 µM,,,,,,,,,,,
CCOP1(=O)C=C(C)C(=C(Cl)Cl)C(C)=C1 (stereo not drawn),47.3 µM,84.1 µM,39.8 µM,30.7 µM,50.3 µM,42.9 µM,> 100 µM,38 µM,29 µM,6.6 µM,,,,,,,,,,
CC(C)C1N2CCCCC2[C@@H]2c3[nH]c4ccccc4c3CCN12 (stereo partly drawn),,> 100 µM,> 100 µM,> 100 µM,> 100 µM,> 100 µM,> 100 µM,> 100 µM,> 100 µM,,,,,,,,,,,
COC(=O)/C(=N\NC(N)=O)C(C(=O)C=C(C)C)C(=O)C(=O)Nc1ccc(Cl)c(Cl)c1 (stereo not drawn),> 100 µM,> 100 µM,> 100 µM,> 100 µM,> 100 µM,> 100 µM,> 100 µM,> 100 µM,> 100 µM,,,,,,,,,,,
COc1cc(/C=C2\C[C@H]3[C@@H]4CC=C5C[C@@H](OC(C)=O)CC[C@]5(C)[C@H]4CC[C@]3(C)[C@H]2OC(C)=O)ccc1OCCN1CCCC1,,> 50 µM,25.4 µM,,22.5 µM,> 50 µM,,19 µM,> 50 µM,11.7 µM,10.1 µM,13.3 µM,12.6 µM,,10.9 µM,10.7 µM,,,,
CC1CC[P+](c2ccccc2)(c2ccccc2)CC1,> 100 µM,> 100 µM,> 100 µM,> 100 µM,> 100 µM,> 100 µM,> 100 µM,> 100 µM,> 100 µM,,,,,,,,,,,
CCCCN(CCCC)CCCn1cnc2ncccc2c1=O,> 100 µM,> 100 µM,> 100 µM,> 100 µM,> 100 µM,> 100 µM,> 100 µM,> 100 µM,> 100 µM,,,,,,,,,,,
COc1ccc(OC)c(/C=C/c2nc(SCc3ccccc3)n(-c3ccc(Cl)cc3)n2)c1,,21.5 µM,36.6 µM,> 100 µM,> 100 µM,> 100 µM,> 100 µM,> 100 µM,> 100 µM,3.93 µM,6.85 µM,14.6 µM,3.5 µM,5.05 µM,14.3 µM,6.51 µM,8.21 µM,,11.6 µM,38.5 µM
C/C(=N\NC(=O)CC(=O)N(C(=O)c1ccc(Cl)cc1)c1ccc(C)cc1)c1ccccc1O,> 100 µM,> 100 µM,> 100 µM,> 100 µM,> 100 µM,> 100 µM,> 100 µM,> 100 µM,> 100 µM,,,,,,,,,,,
C1C[OH+]CC[OH+]CCNCC[OH+]CC[OH+]CCN1.Cl.[Cl-].[Pt+4],,> 100 µM,> 100 µM,> 100 µM,> 100 µM,> 100 µM,> 100 µM,25 µM,> 100 µM,> 100 µM,5.27 µM,> 100 µM,> 100 µM,> 100 µM,> 100 µM,> 100 µM,> 100 µM,,,
